Source: patent US20170367338A1, “COMPOSITIONS AND METHODS FOR IMPROVING AGRONOMIC CHARACTERISTICS OF PLANTS” (MONSANTO TECHNOLOGY LLC, priority 2014, published 2017)
In brackets after ≈: the same amount, converted by molar mass. Like-named read-outs stand apart in the source and are kept apart here. Marks after values point to notes of the source that are not given here.

Key:
[1] = tested on: root knot nematode (RKN); experiment: RKN greenhouse soil assay on cucumber plants; assay type: in vivo; settings: for percent control (galling reduction), Acetone 1 mg/kg: Acetone formulation (10% acetone in 0.05% Triton X 100)
Description: Cucumber seeds are planted in a sandy soil mixture in two inch square plastic pots. When the cotyledons are fully opened and just as the first leaf begins to emerge, usually 7 days after planting, chemistry for the 7 day treatment is applied. One week later the chemistry for the 0 day treatment is applied. Separate plants are used for each application. The plants are generally in the 1-2 leaf stage now. At least four hours after the chemistry application the pots are inoculated with root knot nematode (RKN) eggs. Plants are rated for galling 14 days after the egg inoculation.
(§1) One milligram of chemistry per four pots is equal to one kilogram per hectare of chemical. A standard test uses four replications. For rates above 2 kg/ha, the desired amount of chemical is weighed into a 30 ml vial (example: 8 kg/ha rate =8 mg chemical in 30 ml vial). The chemical is dissolved in 2 ml of appropriate solvent, generally acetone. For rates below 2 kg/ha, 2 milligrams of chemistry is weighed into the vial and dissolved in 2 ml of the solvent. The appropriate amount of chemical concentrate is then pipetted into a separate 30 ml vial and solvent is added to bring the volume to 2 ml (example 0.5 kg/ha=0.5 ml of concentrate+1.5 ml solvent). Each dissolved concentrate is then brought to a total of 20 milliliters using 0.05% Triton X 100 surfactant solution.
(§2) Pots to be treated are moist but not saturated. To each of four pots, five milliliters of the appropriate chemical solution is pipetted to the media surface making sure to avoid contact with the base of the plant. Immediately following chemical application, using a mist nozzle, the pot surface is wetted sufficiently to saturate the pot watering in the chemistry. The chemical application is done in the morning.
(§3) Nematode eggs, either SCN or RKN, are added to distilled water to create a concentration of 1000 vermiform eggs […]. At least four hours after chemical treatment the eggs are applied to the treated pots plus non-treated check plants. A small hole about 1 cm deep is punched into the pot surface. One milliliter of the nematode egg slurry is pipetted into the hole. Immediately afterwards the hole is gently covered. Watering of the test plants is then restricted to only water as needed to prevent wilt for a period of 24 hours. After the 24 hour restricted watering, normal sub-irrigation watering is done for the duration of the test.

[2] = tested on: root knot nematode (RKN); experiment: RKN greenhouse soil assay on cucumber plants; assay type: in vivo; settings: Radex emulsifiable concentrate formulation (6.25% active ingredient)
[3] = tested on: Meloidogyne incognita; experiment: M. incognita miniaturized greenhouse assay on cucumber seedlings; assay type: in vivo; settings: 1 ppm
Description: The test compound is dissolved in an acetone solution and added to water. A sprouted cucumber seedling is placed into a vial with dry sand and the water-chemical solution is added immediately. Twenty four hours later Meloidogyne incognita eggs are added to the vials and 10 to 12 days later the roots are evaluated for nematode galling.
Cucumber seeds are sprouted for 3 days in moist paper towels. Acceptable sprouts should be 3 to 4 cm long with several lateral roots just emerging. Stock solutions of chemistry are prepared in a mixture of acetone and Triton X100 (412 mg in 500 mL) to a final concentration of 5 mg/mL. The chemical stock solution is then added to 10 mL deionized water plus 0.015% Triton X100 and mixed thoroughly. This is enough to test each condition in triplicate. Ten mL dry sand is added to each vial. At this time the solubility of the chemistry is visually determined and recorded as either ppt (large precipitates) or cloudy (fine precipitates). Seedlings are planted by tilting the vial and laying the seedling in the correct orientation so that the cotyledons are just above the sand and then tilting back to cover the radicles with sand. 3.3 ml water/chemical mix is added to each vial and the vials placed in racks under fluorescent light banks. The vials are inoculated two days after planting by adding 500 vermiform M. incognita eggs to each vial in 50 uL of deionized or spring water. The vials are then kept under the fluorescent lamps at ambient room temperature and watered as needed with 1mL deionized water, usually twice during duration of test. Harvest of the cucumber plants is done 10 to 12 days after inoculation by washing sand off the roots. A root gall rating and visual phytotoxicity rating is assigned using the following scales: Gall rating scale (Gall: % root mass galled): 0=0-5%; 1=6-20%; 2=21-50%; and 3=51-100%. The average of the triplicate gall rating is then calculated: green=0.00-0.33 (no galls); yellow=0.67-1.33 (mild galling); orange=1.67-2.33 (moderate galling); red=2.67-3.00 (severe galling). Visual phytotoxicity scale is also assigned (Vis. tox; visual reduction in root mass compared to the control): rs1=mild stunting; rs2=moderate stunting; rs3=severe stunting.

[4] = tested on: soybean cyst nematode (SCN); experiment: SCN greenhouse sand assay on soybean plants; assay type: in vivo; settings: Glycine max, 672 h, read-out: percent control (cyst number reduction) relative to the control blank treatment
Description: Soybeans seeds are planted in 100% sand in two inch square plastic pots. Chemical treatment is done when the soybeans show the first trifoliate beginning to emerge about 10 to 12 days after planting. At least four hours after chemical application the nematode soybean cyst nematode (SCN) eggs are applied and 28 days after the egg inoculation the test is harvested.
as §1, §2, §3

[5] = assay type: in vivo
Description: Acute oral toxicity testing was performed in mice in accordance with test method P203.UDP, as administered by Eurofins/Product Safety Laboratories (Dayton, New Jersey). CD-1/Swiss derived albino mice were obtained and group housed in suspended solid bottom caging. The mice were fed rodent chow and filtered tap water was supplied ad libitum. Following acclimation to the laboratory setting, a group of animals was fasted overnight by removing food from the cages. After the fasting period, three female mice were selected based on vitality and initial body weights. The individual compound doses were calculated from these body weights.
The test substance was prepared as a 1% (50 mg/kg) or 5% (500 mg/kg) weight to weight (w/w) mixture in a 0.5% w/w solution of carboxymethylcellulose (CMC) in distilled water. A tissue homogenizer was used to create a homogeneous mixture. A dose of 50 or 500 mg/kg was administered to three healthy mice per dose level by oral intubation using a ball-tipped gavage needle attached to a syringe. After administration, the animals were returned to their cages, and feed was replaced immediately after dosing.
Body weights were recorded prior to initiation and on Days 7 and 14 or a soon as possible after death.

[6] = tested on: root knot nematode; experiment: Pre-plant incorporated (PPI) greenhouse test of root knot nematode on cucumber plants; assay type: in vivo; settings: for pest or weed control at 4000 g/ha: 4 kg/ha, read-out: percent control (galling reduction), 4 kg/ha rate; for pest or weed control at 8000 g/ha: 8 ka/ha, read-out: percent control (galling reduction), 8 ka/ha rate
Description: The PPI test examines the effect of pre-incorporation of compounds in soil and longer aging to simulate in furrow methods of nematicide application in the field. The PPI test exposes compounds to a higher volume of soil and drying which can result in more severe soil binding. Compounds are also aged for longer periods which can lead to more extensive biotic and abiotic degradation further limiting activity.
The chemically treated soil (sandy soil mix) for all treatment days (e.g., 7 days, 14 days, 21 days) treatments is potted into their appropriate pots. On the same day the 7 day treatment pots are seeded. One week later eggs are applied and 14 days after egg application the test is harvested. The 14 day treatments are planted 7 days after the first planting. The 14 day planting and 7 day inoculation happen on the same day. One week later the 14 day treatments are inoculated with eggs. These are harvested 14 days after the inoculation. The 21 day treatments are planted 14 days after the first planting. The 14 day inoculation and 21 day planting are done on the same day. One week later the 21 day plants are inoculated with eggs. The 7 day treatment is harvested the same day as the 21 day inoculation. Fourteen days after inoculation the 21 day plants are harvested.
For each compound a stock is prepared using 4 mg material in 4 ml of acetone. The soil is mixed by placing 80 ml of field soil and 320 ml of sand in a plastic bag and mixing well. The formulation for treatment is done by adding 2.13 ml (8 kg/ha rate), 1.06 ml (4 kg/ha rate) or 0.53 ml (2 kg/ha rate) to a vial and raising it with 10 ml in 0.05% X100. Soil is then treated by adding the entire 10 ml to the 400 ml of mix in the bag. The treated soil is immediately mixed well in the sealed bag to distribute the compound evenly. Approximately 95 ml is used to fill each 2-inch square pot up to the top with some soil compression and flattening. For each compound and for the control treatments 4 pots are filled. All pots are watered until moist but with no run-out through the bottom.
The PPI test simulates 8, 4 and 2 kg/ha rates incorporated 15 cm deep in the field and is equivalent to the 2, 1 and 0.5 kg/ha drench application rates in the standard 2-inch pot cucumber greenhouse assay.

[7] = tested on: Meloidogyne incognita; experiment: Fall nematicidal field test on squash
Description: The soil was a native prairie/pasture covering silty clay loam soil. […] Total volume of each hole was about 1.2 cubic feet. […] Holes were filled and then re-filled 5 days later after settling. […] Organic matter was 0.2% and pH was 6.8.
Treatments were arranged in a block design with the blocks laid out perpendicular to the primary slope and parallel to secondary slope. There are 7 inoculated controls and 5 non-inoculated controls and the distributions of disease severity appeared independent of location.
The resultant mix is the same as used in the standard greenhouse assays (10% acetone, 0.05% X100). The oxamyl treatments were prepared from Vydate 2L formulated the same way. The 500 ml was placed in a watering can and the entire volume was evenly sprinkled over the surface of the plot. No runoff occurred and pooling, if any, was short lived. The final drench volume was 0.58 ml/cm^2, compared to 0.2 ml/cm^2 used in our greenhouse, however the microplots are much deeper so the drench volume applied per soil volume treated is roughly the same.
Meloidogyne incognita eggs were harvested over a two week period and stored at approximately 5° C. until needed. A stock of 5.6 million vermiform eggs was adjusted to 9000/m1 in 620 ml. One day after treatment, two holes were made in each plot about 7 cm apart and equidistant from the squash plants. Five ml of egg suspension was pipetted into each hole, which was then sealed and the plot lightly watered. A total of 90,000 vermiform eggs were added to each plot.
The first root evaluation was at 28 DAT. The tops were cut off and weighed immediately in the field, and the roots were carefully dug out so as not to disturb the remaining plant.

[8] = tested on: C. elegans; experiment: Three day C. elegans well assay; assay type: in vivo; settings: Caenorhabditis elegans
Description: Various compounds were tested for nematicidal activity against C. elegans using contact assays in wells. The assays were performed as described below. The test compounds were solubilized in DMSO at 10 mg/ml to create 100× stock solutions. A dilution series was created by diluting the stock solution with DMSO. For each well assay 4 ul of the appropriate dilution is added to a well of a test plate. A 400 ul aliquot of bacterial stock (in M9 buffer with ampicillin and nystatin) are added to each well of the test plate. Worms are added and the test plate placed on a rotary shaker and held at 20° C. Worms are examined and scored at 4 hrs, 24 hrs, 48 hrs and 72 hours. L1 worms and L4 worms were used in the assay. L1 worms are prepared by plating eggs on a plate without a bacterial feeding layer. The eggs hatch and arrest at the L1 stage. This L1 stage population is then used to create a stock for the experiments. To create an L4 stage stock a small number of worms are taken from an overgrown and starved plate of worms and seeded on a plate with a bacterial feeder layer. A 25 ul aliquot of worms is added to each well in the assay.

[9] = 504 h, twenty one day pre-plant incorporated
[10] = 336 h, fourteen day pre-plant incorporated, test a
[11] = fourteen day pre-plant incorporated, test a

Brc1ccc(-c2noc(-c3cccs3)n2)cc1 [compound 1846]
percent control (galling reduction), Acetone 1 mg/kg [1]: 88% | percent control (galling reduction), Radex 1 mg/kg [2]: 86%

Brc1ccc(-c2cnc(-c3cccs3)o2)cc1 [compound 4776]
1 ppm gall rating ([3]; Table 1C test a): 1 (1=6-20%) | 1 ppm gall rating ([3]; Table 1C test c): 1 (1=6-20%) | pest or weed control at 500 g/ha ([4]; 0.5 kg/ha, test c): 78% | pest or weed control at 1000 g/ha ([4]; 1 kg/ha, test c): 89% | pest or weed control at 2000 g/ha ([4]; 2 kg/ha, test a): 99% | acute oral toxicity: mortality and signs ([5]; 500 mg/kg oral, three female mice, observed up to 14 days): two animals died within three days | oral toxicity ([5]; mice, estimate based on the 50 and 500 mg/kg studies): lower than 500 mg/kg | pest or weed control at 4000 g/ha [6, 9]: 50% | pest or weed control at 8000 g/ha [6, 9]: 80% | RW28 root weight at 28 days after treatment ([7]; 2 kg ai/ha, squash): 7.5 | RW43 root weight at 43 days after treatment ([7]; 2 kg ai/ha, squash): 13.0 | TW28 top weight at 28 days after treatment ([7]; 2 kg ai/ha, squash): 250.8 | control of root galling compared with oxamyl at an equivalent rate ([7]; both the 28 day and the 43 day time point): statistically better than oxamyl

Brc1ccc(-c2noc(-c3ccco3)n2)cc1 [compound 5467]
percent control (galling reduction), Acetone 1 mg/kg [1]: 73% | pest or weed control at 4000 g/ha [6, 10]: 76% | percent control (galling reduction), 2 kg/ha rate [6, 11]: 71^a percent | pest or weed control at 8000 g/ha [6, 11]: 100% | percent control (galling reduction), Radex 1 mg/kg [2]: 88%

Cc1cc(Br)ccc1-c1noc(-c2ccco2)n1 [compound 5825]
percent control (galling reduction) relative to the control blank treatment ([1]; 0 day treatment, 0.1 kg/ha, test a): 50^a percent | percent control (galling reduction), Acetone 1 mg/kg [1]: 96% | EC50 ([8]; 24 h, L1 larvae, one day of exposure, read-out: EC50 L1 1D): 0.4 µg/mL (≈ 1.31 µM) | EC50 ([8]; 24 h, L4 larvae, one day of exposure, read-out: EC50 L4 1D): 1.6 µg/mL (≈ 5.24 µM) | EC50 ([8]; 48 h, L1 larvae, two days of exposure, read-out: EC50 L1 2D): 0.4 µg/mL (≈ 1.31 µM) | EC50 ([8]; 48 h, L4 larvae, two days of exposure, read-out: EC50 L4 2D): 1.6 µg/mL (≈ 5.24 µM) | EC50 ([8]; 72 h, L1 larvae, three days of exposure, read-out: EC50 L1 3D): 0.4 µg/mL (≈ 1.31 µM) | EC50 ([8]; 72 h, L4 larvae, three days, effects on the second generation larvae, read-out: EC50 L4 3D (F1)): 1.6 µg/mL (≈ 5.24 µM) | pest or weed control at 4000 g/ha [6, 10]: 98% | percent control (galling reduction), 2 kg/ha rate [6, 11]: 69^a percent | pest or weed control at 8000 g/ha [6, 11]: 96% | percent control (galling reduction), Radex 1 mg/kg [2]: 96%
